From patent US20240166684A1 (priority 2021, published 2024)
pIC50: −log10 of the molar value. Entries after “also recorded” stand apart in the source; their conditions may differ. Read-outs that look alike come from different tables or passages of the source. Non-standard residues stand in square brackets, D forms with d. Residues, ends and D or L forms follow the SMILES beside them. *: point of attachment. Nle = CCCC[C@H](N)C(=O)O; Cbz = O=C(OCc1ccccc1)*

Tests used:
[1] = test system: ATP1A1; format: cell-based, human
[2] = test system: ATP1A3; format: cell-based, human
[3] = test system: PrP^C; conditions: for effect of co-incubated inhibitor on ouabain-induced reduction in PrP^C levels: 25 nM ouabain or 20 nM ouabain; for effect on steady-state PrP^C levels: 3-day exposure (FIG. 7), ouabain 20 nM
[4] = test system: GFAP; format: cell-based, human
[5] = test system: ATP1A2; format: cell-based, human
[6] = test system: NKA β subunit; format: cell-based, human
[7] = test system: class III beta tubulin (Tuj-1); format: cell-based, human
[8] = test system: ReN VM cells; conditions: human
[9] = mouse, in vivo, sc
[10] = test system: HeLa cells; conditions: cited from earlier work
[11] = cited from earlier work
[12] = test system: PrP^C; conditions: literature screens; cited from earlier work
[13] = test system: ReN VM cells; experiment: cells; format: cell-based, human
[14] = test system: ReN VM cells; experiment: cells; format: cell-based; conditions: Homo sapiens, 168 h, read-out: concentration at which metabolic activity dropped to 50%
[15] = test system: NKAs; conditions: cited from earlier work
[16] = test system: ReN VM cells; experiment: cells; format: cell-based; conditions: Homo sapiens, 168 h, read-out: cellular toxicity: concentration at which ATP levels drop to 50% of mock-treated control
[17] = test system: 5′-ectonucleotidase (5′-NT); format: cell-based, human
[18] = test system: NKAs; conditions: cited from earlier work; remark: listed apart in the source
[19] = test system: NKAs
[20] = differentiated ReN VM cells, one-week exposure

CCCC[C@@H](C=O)NC(=O)[C@H](CC(C)C)NC(=O)[C@H](CC(C)C)NC(C)=O [A6185, N-acetyl-Leu-Leu-norleucinal] (Ac-Leu-Leu-[Nle]-aldehyde)
effect on steady-state ATP1A1 levels [1]: no apparent effect
effect on steady-state ATP1A3 levels [2]: no apparent effect
effect of co-incubated inhibitor on ouabain-induced reduction in PrP^C levels [3]: did neither prevent
effect on steady-state PrP^C levels ([3]; ReN VM cells): diminished
effect on ouabain-induced formation of faster migrating GFAP bands [4]: blocked the excessive formation of faster migrating bands
effect on steady-state ATP1A2 levels [5]: diminished

COC1C[C@H](O[C@H]2CC[C@]3(C)C4CC[C@]5(C)[C@@H](C6=CC(=O)OC6)[C@@H](OC(C)=O)C[C@]5(O)[C@@H]4CC[C@@H]3C2)OC(C)C1=O (stereo partly drawn) [I-3, 4′-dehydro-oleandrin]
concentration achieving similar reduction in ATP1A1 levels [1]: 4 nM
concentrations causing reduction of steady-state ATP1A1 levels [1]: up to 16 nM
effect on NKA β subunit levels [6]: lesser, yet also pronounced reduction
effect on Tuj-1 levels [7]: not paralleled by significant changes
tolerated concentration [8]: up to 30 nM
toxic concentration [8]: ≥ 40 nM
concentration at which ATP1A3 levels reach a maximum [2]: 24 to 32 nM
concentration up to which ATP1A3 levels stayed unchanged [2]: up to 8 nM
maximum reduction in steady-state PrP^C levels ([3]; 12 nM, one week, ReN VM cells): 84%
concentration at which PrP^C signal rebounds / migrates differently in SDS-PAGE [3, 20]: 20 to 32 nM
concentrations causing concentration-dependent reduction of steady-state PrP^C levels [3, 20]: 4 to 16 nM
effect on steady-state GFAP levels [4]: not paralleled by significant changes
effect of I-3 on steady-state ATP1A2 levels [5]: declined as levels of exemplary compound I-3 were increased
concentration accumulated in the brain [9]: 38.8 nM
time of highest levels in heart, kidney and liver [9]: 4 h
pIC50 [10]: 7.34
cytotoxicity relative to oleandrin [10]: slightly reduced relative to oleandrin
oral effectiveness (oral versus intravenous lethal doses), increase relative to oleandrin ([11]; cats): approximately 20%
oral toxicity relative to oleandrin ([11]; in vivo, po): almost twofold lower

CC(C)C[C@@H](C=O)NC(=O)[C@H](CC(C)C)NC(=O)[C@H](CC(C)C)NC(=O)OCc1ccccc1 [MG132] (Cbz-Leu-Leu-Leu-aldehyde)
effect of co-incubated inhibitor on ouabain-induced reduction in ATP1A1 levels [1]: caused an increase in ATP1A1 steady-state levels
effect of co-incubated inhibitor on ouabain-induced reduction in PrP^C levels [3]: failed to block

C=CC[C@@H]1/C=C(\C)C[C@H](C)C[C@H](OC)[C@H]2O[C@@](O)(C(=O)C(=O)N3CCCC[C@H]3C(=O)O[C@H](/C(C)=C/[C@@H]3CC[C@@H](O)[C@H](OC)C3)[C@H](C)[C@@H](O)CC1=O)[C@H](C)C[C@@H]2OC [Tacrolimus]
effective concentrations for reducing PrP^C levels [12]: micromolar

C[C@H]1O[C@@H](O[C@H]2[C@@H](O)C[C@H](O[C@H]3[C@@H](O)C[C@H](O[C@H]4CC[C@@]5(C)[C@H](CC[C@@H]6[C@@H]5C[C@@H](O)[C@]5(C)[C@@H](C7=CC(=O)OC7)CC[C@]65O)C4)O[C@@H]3C)O[C@@H]2C)C[C@H](O)[C@@H]1O [digoxin]
increase of cellular calcium levels [13]: approximately 20%
pIC50 ([13]; Homo sapiens, 168 h, read-out: concentration giving half maximum intracellular calcium levels): 7.52
level above which all three measures of cellular health dropped [8]: Above 10 nM
pIC50 [14]: ~7.30
time to dissociate from NKAs [15]: 18 h
pIC50 [16]: ~7.60

CC(=O)N[C@@H](CSC(=O)[C@]1([C@@H](O)C(C)C)NC(=O)[C@H](C)[C@@H]1O)C(=O)O [lactacystin]
effect of co-incubated inhibitor on ouabain-induced reduction in ATP1A1 levels [1]: caused an increase in ATP1A1 steady-state levels
effect of co-incubated inhibitor on ouabain-induced reduction in PrP^C levels [3]: failed to block

COC1C[C@H](O[C@H]2CC[C@]3(C)C4CC[C@]5(C)[C@@H](C6=CC(=O)OC6)[C@@H](OC(C)=O)C[C@]5(O)[C@@H]4CC[C@@H]3C2)OC(C)[C@@H]1O (stereo partly drawn) [oleandrin, acetic acid [(3S,5R,10S,13R,14S,16S,17′R)-14-hydroxy-3-[[(2R,4S,5S,6S)-5-hydroxy-4-methoxy-6-methyl-2-tetrahydropyranyl]oxy]-10,13-dimethyl-17-(5-oxo-2H-furan-3-yl)-1,2,3,4,5,6,7,8,9,11,12,15,16,17-tetradecahydrocyclopenta[a]phenanthren-16-yl] ester]
concentration achieving similar reduction in ATP1A1 levels [1]: 4 nM
concentration at which ATP1A1 levels rebound / increase [1]: around 2 nM
tolerated concentration [8]: up to 2 nM
potency of oleandrin relative to ouabain for similar reduction of ATP1A1 and PrP^C ([3]; 7-day treatment, differentiated ReN VM cells): approximately tenfold higher potency; also recorded: tenfold lower levels
brain levels relative to other organs [9]: lowest in the brain
time of rapid increase in heart, kidney and liver [9]: 2 h

C[C@@H]1O[C@@H](O[C@H]2C[C@@H](O)[C@]3(CO)[C@H]4[C@H](O)C[C@]5(C)[C@@H](C6=CC(=O)OC6)CC[C@]5(O)[C@@H]4CC[C@]3(O)C2)[C@H](O)[C@H](O)[C@H]1O [ouabain]
concentration at which ATP1A1 levels rebound / increase [1]: 50 nM
concentrations causing reduction of steady-state ATP1A1 levels [1]: up to 30 nM
effect on steady-state ATP1A1 levels [1]: reduction
lowest concentration at which ATP1A1 reduction is apparent [1]: 3 nM
effect on steady-state ATP1A3 levels [2]: not affected
effect on steady-state 5′-NT levels [17]: increase
effect on steady-state PrP^C levels ([3]; ReN VM cells): reduction
concentration at which PrP^C signal rebounds / migrates differently in SDS-PAGE [3, 20]: 50 nM
lowest concentration at which PrP^C reduction is apparent [3, 20]: 3 nM
effect on GFAP antibody-reactive bands [4]: an increase in the intensity levels of bands that were reactive toward GFAP-directed antibodies
effect on steady-state ATP1A2 levels [5]: reduction
pIC50 [18]: 7.39 to 7.82
time to dissociate from NKAs [15]: less than two hours
reduction of total 86Rb+ uptake by complete block of NKAs [19]: 49%

bafilomycin
effect of co-incubated inhibitor on ouabain-induced reduction in ATP1A1 levels [1]: rescued
effect of co-incubated inhibitor on ouabain-induced reduction in PrP^C levels [3]: rescued

calpastatin
effect of co-incubated inhibitor on ouabain-induced reduction in ATP1A1 levels [1]: did neither prevent
effect of co-incubated inhibitor on ouabain-induced reduction in PrP^C levels [3]: did neither prevent
